We go through three compounds from article PMC5107951 (Scientific Reports, 2016).

Where a SMILES comes first, the peptide text is derived from it. Bridges are numbered along the chain shown (N, C = ends).

For experiment [1], the target named is α7 nAChR (Rattus norvegicus, UniProt Q05941). The experiment in a line: cell-based.
Experiment [2] has as its target α7 nAChR (Homo sapiens, UniProt P36544). Put plainly: cell-based. The class given is binding.

Chain of α7 nAChR (Rattus norvegicus, UniProt Q05941) (Q05941 23-502 limits assumed): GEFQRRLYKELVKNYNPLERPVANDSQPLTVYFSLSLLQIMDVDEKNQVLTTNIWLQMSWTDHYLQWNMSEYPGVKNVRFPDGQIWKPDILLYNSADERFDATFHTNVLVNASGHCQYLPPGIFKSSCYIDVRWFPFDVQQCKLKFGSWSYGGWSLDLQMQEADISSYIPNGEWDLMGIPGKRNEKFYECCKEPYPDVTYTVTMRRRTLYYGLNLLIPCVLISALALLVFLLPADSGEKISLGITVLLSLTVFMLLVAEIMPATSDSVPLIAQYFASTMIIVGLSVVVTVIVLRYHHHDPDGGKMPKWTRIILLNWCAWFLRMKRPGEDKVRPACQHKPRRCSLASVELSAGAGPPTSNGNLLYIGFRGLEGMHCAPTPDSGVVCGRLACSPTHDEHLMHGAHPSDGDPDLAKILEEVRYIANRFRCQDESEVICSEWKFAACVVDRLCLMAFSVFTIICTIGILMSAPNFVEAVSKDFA
Chain of α7 nAChR (Homo sapiens, UniProt P36544) (P36544 23-502 limits assumed): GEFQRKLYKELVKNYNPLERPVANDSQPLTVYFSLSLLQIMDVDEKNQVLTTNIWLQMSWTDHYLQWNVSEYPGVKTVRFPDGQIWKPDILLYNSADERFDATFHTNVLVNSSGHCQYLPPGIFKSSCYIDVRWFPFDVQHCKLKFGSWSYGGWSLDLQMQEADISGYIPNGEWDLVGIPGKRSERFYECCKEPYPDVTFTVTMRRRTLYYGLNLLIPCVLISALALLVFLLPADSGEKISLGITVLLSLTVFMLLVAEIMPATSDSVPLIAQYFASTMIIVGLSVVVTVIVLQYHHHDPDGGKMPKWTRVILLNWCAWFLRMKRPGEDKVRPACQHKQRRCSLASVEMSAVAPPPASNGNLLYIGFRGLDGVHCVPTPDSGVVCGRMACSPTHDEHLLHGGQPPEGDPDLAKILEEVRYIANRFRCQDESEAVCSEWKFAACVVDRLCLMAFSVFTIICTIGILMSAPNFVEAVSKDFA

What is called IC50 is the concentration needed to halve the response being measured. Higher therefore signals weaker potency in that assay. Turning to `CC(C)C[C@@H]1NC(=O)[C@H](CO)NC(=O)[C@@H]2CSSC[C@@H](C(N)=O)NC(=O)[C@H](Cc3ccc(O)cc3)NC(=O)[C@H](CC(=O)O)NC(=O)[C@@H]3CCCN3C(=O)[C@H](CC(N)=O)NC(=O)[C@H](CC(N)=O)NC(=O)[C@H](C)NC(=O)[C@H](CCCNC(=N)N)NC(=O)[C@H](CSSC[C@H](NC(=O)CN)C(=O)N2)NC(=O)[C@@H]2CCCN2C(=O)[C@@H]2CCCN2C1=O` [PnIA[R9]] (H-GCCSLPPCRANNPDYC-NH2; disulfide 2-8, 3-16), the IC50 amounted to 27 ± 10 nM in experiment [1] and 1490 nM in experiment [2].

As for `CC(C)C[C@@H]1NC(=O)[C@H](CCCNC(=N)N)NC(=O)[C@@H]2CSSC[C@H](NC(=O)CN)C(=O)N[C@@H](CSSC[C@@H](C(N)=O)NC(=O)[C@H](Cc3ccc(O)cc3)NC(=O)[C@H](CCCNC(=N)N)NC(=O)[C@@H]3CCCN3C(=O)[C@H](CC(N)=O)NC(=O)[C@H](CC(N)=O)NC1=O)C(=O)N[C@@H](CO)C(=O)N[C@@H](CCCNC(=N)N)C(=O)N1CCC[C@H]1C(=O)N1CCC[C@H]1C(=O)N2` [PnIA[R5, R9, L10, R14]] (H-GCCSRPPCRLNNPRYC-NH2; disulfide 2-8, 3-16), 17 ± 2 nM corresponded to half-maximal inhibition in experiment [1] (IC50).

For the compound `CC(C)C[C@@H]1NC(=O)[C@H](CCCNC(=N)N)NC(=O)[C@@H]2CSSC[C@H](NC(=O)CN)C(=O)N[C@@H](CSSC[C@@H](C(N)=O)NC(=O)[C@H](Cc3ccc(O)cc3)NC(=O)[C@H](CC(=O)O)NC(=O)[C@@H]3CCCN3C(=O)[C@H](CC(N)=O)NC(=O)[C@H](CC(N)=O)NC1=O)C(=O)N[C@@H](CO)C(=O)N[C@@H](CC(C)C)C(=O)N1CCC[C@H]1C(=O)N1CCC[C@H]1C(=O)N2` [PnIA[R9, L10]] (H-GCCSLPPCRLNNPDYC-NH2; disulfide 2-8, 3-16), the IC50 in experiment [1] came out at 27 ± 11 nM. Also, the “displacement of [125I]-PnIA[R9, L10] by non-radioactive peptide” value in experiment [2] came out at 100%.
